From publication PMC6109075, “Characterization of membrane penetration and cytotoxicity of C9orf72-encoding arginine-rich dipeptides” (Scientific Reports, 2018)
Entries after “also recorded” stand apart in the source; their conditions may differ. Ends that are not written are not given here. Peptide text beside a SMILES is read from it.

Key:
[1] = tested on: NSC34 cells; experiment: Penetration of FITC-conjugated DRPs into NSC34 cells; assay type: cell-based, mouse; conditions: fluorescence intensity
[2] = tested on: HEK293 cells; experiment: Confocal imaging of live or fixed/permeabilized HEK293 cells treated with FITC-labeled CPPs; assay type: cell-based, human; conditions: for entry into fixed/permeabilized cells: HEK293 cells after fixation/permeabilization, 10 μM FITC-peptide
Protocol: HEK293 cells were treated with 10 μM of FITC-labeled CPPs for 1 hr in combination with Nucblue live dye and then washed with PBS twice. The images were obtained by FV10 confocal microscopy (Olympus, Japan) or LSM710 confocal microscopy (Zeiss, Germany).
For RNAse A treatment, the HEK293 cells, fixed and permeabilized, were incubated with 10 μg/ml of recombinant RNAse A for 1 hr at 37 °C, followed by treatment with 10 μM of FITC-labeled peptides for 30 min. The cells were then washed with PBS twice and imaged with a confocal microscopy.

[3] = tested on: Hela cells; experiment: Peptide penetration assay, Hela cells at different pH (imaging); assay type: cell-based, human; conditions: PBS pH6.0, pH7.4, pH8.0, 2 μM FITC-peptide, 1 hr
Protocol: For imaging, Hela cells were washed twice with phosphate buffered saline (PBS) (pH7.4) and then incubated with PBS of different pH (pH6.0, pH7.4 and pH8.0) containing 2 μM of FITC-(PR)20 or FITC-R12 for 1 hr, followed by washing with PBS twice. For quantification, HEK293 cells were incubated with 10 μM FITC-(PR)20 in 10% FBS-DMEM for 30 min at 4 °C or 37 °C. The cells were washed twice with PBS and then re-suspended in PBS. The fluorescent signal was measured by a plate reader TECAN infinite F200.

[4] = molecular target: EGFR (Homo sapiens) (UniProt P00533); conditions: cited from earlier work
[5] = tested on: NSC34 cells; experiment: LDH release assay in NSC34 cells; assay type: cell-based, mouse; conditions: 24 hr, N = 6
Protocol: LDH assay was performed with Cytotoxicity LDH Assay Kit-WST from Wako (Japan) following the manufacture’s protocol. Briefly, mouse neuronal NSC34 cells or human fibroblasts were plated on a 96-well plate at 2 × 10^4 cells/well and then treated with the indicated concentration of peptide for 24 hr (NSC34 cells) or 48 hr (fibroblasts) before measurement of LDH release. The absorbance was measured by iMark microplate absorbance reader (Biorad).

[6] = Functional assay of (PR)12 stability after incubation in culture medium; assay type: in vitro ADME; conditions: 20 µM (PR)12-FITC, 2 hr with live HEK293 cells in DMEM-10%FBS, conditioned medium transferred to fixed/permeabilized HEK293 cells, read-out nucleolar accumulation
[7] = tested on: NSC34 cells; experiment: Cytotox glo assay in NSC34 cells; assay type: cell-based, mouse; conditions: 24 hr, N = 6
Text: Anti-B23/nucleophosmin antibody was purchased from Cell signaling technology (Danvers, MA). RNAse A was obtained from Qiagen (Hilden, Germany). 1-Step Human Coupled IVT kit, oleic acid, poly-A RNA, Prolong Gold with DAPI and Nucblue live reagent were purchased from ThermoFisher Scientific (Waltham, MA). Cytotoxicity LDH Assay Kit-WST and octanol were obtained from Wako pure chemicals (Japan). Cell Titer-Glo and Cell-tox glo kits were purchased from Promega (Madison, WI). TAMRA-labeled random 15mer RNA was synthesized by Fasmac (Japan). Anti-puromycin antibody was purchased from Millipore.

[8] = tested on: protein translation (Hela cell lysates); experiment: In vitro translation (IVT) assay, turboGFP fluorescence; assay type: biochemical, human; conditions: cell-free IVT, 100 μM peptide, turboGFP cDNA and Hela cell lysates, 37 °C, read every 1 min, N = 3
Protocol: IVT assay was performed with 1-step Human-Coupled IVT kit (ThermoFisher) following manufacturer’s protocol. Briefly, turboGFP cDNA and Hela cell lysates were mixed in a 96 white-well PCR plate in the presence or absence of 100 μM of each peptide and incubated at 37 °C. The fluorescence from translated turboGFP was measured by LightCycler (Roche lifescience) every 1 min.

[9] = Peptides absorption assay (buffer / octanol containing oleic acid); assay type: physicochemical; conditions: FITC-labeled peptide, buffers of different pH vs octanol containing 1% oleic acid (v/v), vortexed 5 min, fluorescence
Protocol: All buffers used for the peptide absorption assay were prepared with 140 mM NaCl, 2.5 mM KCl, 5 mM HEPES, 5 mM glycine, and the final pH was adjusted with NaOH or HCl.
The assay to show the effect of pH in peptides absorption into a hydrophobic phase was performed as previously reported. […] Fifty microliter of the buffer-peptide mix and 50 μl of octanol containing 1% of oleic acid (OA) (v/v) were placed into a microtubes and vortexed for 5 min, followed by centrifugation at 2200 g briefly to separate the octanol phase and buffer phase. After separation, octanol phase containing OA and absorbed peptides were collected and the fluorescence was measured by a plate reader TECAN infinite F200 (Mannedorf, Switzerland).

Compound: N=C(N)NCCC[C@H](NC(=O)CNC(=O)[C@H](CCCNC(=N)N)NC(=O)CNC(=O)[C@H](CCCNC(=N)N)NC(=O)CNC(=O)[C@H](CCCNC(=N)N)NC(=O)CNC(=O)[C@H](CCCNC(=N)N)NC(=O)CNC(=O)[C@H](CCCNC(=N)N)NC(=O)CNC(=O)[C@H](CCCNC(=N)N)NC(=O)CNC(=O)[C@H](CCCNC(=N)N)NC(=O)CNC(=O)[C@H](CCCNC(=N)N)NC(=O)CNC(=O)[C@H](CCCNC(=N)N)NC(=O)CNC(=O)[C@H](CCCNC(=N)N)NC(=O)CNC(=O)[C@H](CCCNC(=N)N)NC(=O)CNC(=O)[C@H](CCCNC(=N)N)NC(=O)CNC(=O)[C@H](CCCNC(=N)N)NC(=O)CNC(=O)[C@H](CCCNC(=N)N)NC(=O)CNC(=O)[C@H](CCCNC(=N)N)NC(=O)CNC(=O)[C@H](CCCNC(=N)N)NC(=O)CNC(=O)[C@H](CCCNC(=N)N)NC(=O)CNC(=O)[C@H](CCCNC(=N)N)NC(=O)CNC(=O)[C@H](CCCNC(=N)N)NC(=O)CN)C(=O)O [(GR)20]
- penetration into NSC34 cells [1]: also entered the cells as well

Compound: N=C(N)NCCC[C@H](NC(=O)[C@@H]1CCCN1C(=O)[C@H](CCCNC(=N)N)NC(=O)[C@@H]1CCCN1C(=O)[C@H](CCCNC(=N)N)NC(=O)[C@@H]1CCCN1C(=O)[C@H](CCCNC(=N)N)NC(=O)[C@@H]1CCCN1C(=O)[C@H](CCCNC(=N)N)NC(=O)[C@@H]1CCCN1C(=O)[C@H](CCCNC(=N)N)NC(=O)[C@@H]1CCCN1C(=O)[C@H](CCCNC(=N)N)NC(=O)[C@@H]1CCCN1C(=O)[C@H](CCCNC(=N)N)NC(=O)[C@@H]1CCCN1C(=O)[C@H](CCCNC(=N)N)NC(=O)[C@@H]1CCCN1C(=O)[C@H](CCCNC(=N)N)NC(=O)[C@@H]1CCCN1C(=O)[C@H](CCCNC(=N)N)NC(=O)[C@@H]1CCCN1C(=O)[C@H](CCCNC(=N)N)NC(=O)[C@@H]1CCCN1C(=S)Nc1ccc2c(c1)C(=O)OC21c2ccc(O)cc2Oc2cc(O)ccc21)C(=O)O [FITC-(PR)12] (HELM PEPTIDE1{[O=C1OC2(c3ccc(O)cc3Oc3cc(O)ccc32)c2ccc(NC(=S)[*:2])cc21].P.R.P.R.P.R.P.R.P.R.P.R.P.R.P.R.P.R.P.R.P.R.P.R}$$$$V2.0)
- entry into fixed/permeabilized cells [2]: entered the cells and accumulated to nucleoli

Compound: N=C(N)NCCC[C@H](NC(=O)[C@@H]1CCCN1C(=O)[C@H](CCCNC(=N)N)NC(=O)[C@@H]1CCCN1C(=O)[C@H](CCCNC(=N)N)NC(=O)[C@@H]1CCCN1C(=O)[C@H](CCCNC(=N)N)NC(=O)[C@@H]1CCCN1C(=O)[C@H](CCCNC(=N)N)NC(=O)[C@@H]1CCCN1C(=O)[C@H](CCCNC(=N)N)NC(=O)[C@@H]1CCCN1C(=O)[C@H](CCCNC(=N)N)NC(=O)[C@@H]1CCCN1C(=O)[C@H](CCCNC(=N)N)NC(=O)[C@@H]1CCCN1C(=O)[C@H](CCCNC(=N)N)NC(=O)[C@@H]1CCCN1C(=O)[C@H](CCCNC(=N)N)NC(=O)[C@@H]1CCCN1C(=O)[C@H](CCCNC(=N)N)NC(=O)[C@@H]1CCCN1C(=O)[C@H](CCCNC(=N)N)NC(=O)[C@@H]1CCCN1C(=O)[C@H](CCCNC(=N)N)NC(=O)[C@@H]1CCCN1C(=O)[C@H](CCCNC(=N)N)NC(=O)[C@@H]1CCCN1C(=O)[C@H](CCCNC(=N)N)NC(=O)[C@@H]1CCCN1C(=O)[C@H](CCCNC(=N)N)NC(=O)[C@@H]1CCCN1C(=O)[C@H](CCCNC(=N)N)NC(=O)[C@@H]1CCCN1C(=O)[C@H](CCCNC(=N)N)NC(=O)[C@@H]1CCCN1C(=O)[C@H](CCCNC(=N)N)NC(=O)[C@@H]1CCCN1C(=O)[C@H](CCCNC(=N)N)NC(=O)[C@@H]1CCCN1C(=S)Nc1ccc2c(c1)C(=O)OC21c2ccc(O)cc2Oc2cc(O)ccc21)C(=O)O [FITC-(PR)20] (HELM PEPTIDE1{[O=C1OC2(c3ccc(O)cc3Oc3cc(O)ccc32)c2ccc(NC(=S)[*:2])cc21].P.R.P.R.P.R.P.R.P.R.P.R.P.R.P.R.P.R.P.R.P.R.P.R.P.R.P.R.P.R.P.R.P.R.P.R.P.R.P.R}$$$$V2.0)
- entry into fixed/permeabilized cells [2]: entered the cells and accumulated to nucleoli
- penetration of the plasma membrane of live cells ([2]; live HEK293 cells, 10 μM FITC-peptide added to culture medium): penetrated the plasma membrane and accumulated to nucleoli

Compound: N=C(N)NCCC[C@H](NC(=O)[C@H](CCCNC(=N)N)NC(=O)[C@H](CCCNC(=N)N)NC(=O)[C@H](CCCNC(=N)N)NC(=O)[C@H](CCCNC(=N)N)NC(=O)[C@H](CCCNC(=N)N)NC(=O)[C@H](CCCNC(=N)N)NC(=O)[C@H](CCCNC(=N)N)NC(=O)[C@H](CCCNC(=N)N)NC(=O)[C@H](CCCNC(=N)N)NC(=O)[C@H](CCCNC(=N)N)NC(=O)[C@H](CCCNC(=N)N)NC(=S)Nc1ccc2c(c1)C(=O)OC21c2ccc(O)cc2Oc2cc(O)ccc21)C(=O)O [FITC-R12]
- effect of extracellular pH on distribution of peptide into cells [3]: higher pH increased the distribution of FITC-labeled CPPs into the cells

Compound: GE11
- Kd [4]: 22 nM

Compound: PRPRPRPRPRPRPRPRPRPRPRPR [(PR)12]
- cytotoxicity, LDH release [5]: did not show cytotoxicity
- stability in the culture medium [6]: stable in the culture medium

Compound: PRPRPRPRPRPRPRPRPRPRPRPRPRPRPRPRPRPRPRPR [(PR)20]
- cytotoxicity, LDH release [5]: killed the cells; also recorded: exerted stronger cytotoxicity
- penetration into NSC34 cells [1]: entered NSC34 cells more efficiently
- cytotoxicity, Cytotox glo luminescence [7]: killed the cells

Compound: amyloid β: amyloid β (40 a.a.), negative control peptide, from Peptide Institute
- inhibition of protein translation in vitro (tGFP fluorescence) [8]: did not see inhibitory effect

Compound: human insulin: FITC-labeled recombinant human insulin (51 a.a.), non-permeable, from Sigma
- effect of pH on absorption of peptide into the octanol phase [9]: did not enhance the absorption
